68 sequences from the supplement of paper PMC11208160 can be followed below.

The data set in a line: recombinant UMI read abundance after kanamycin selection (control-corrected) (log10(CPM+1)); higher = more efficient recombination; extreme values may be limits of the assay; sequences stand for … in AGTGCAGAGAAAATCGGCCAGTTTTCTCTGCCTGCAGTCCGCATGCCGTGGGACCCCTTGGGTTCTAACCTGTTGCCTAGATTTATGCAGCGGACTGCCTTTCTCCCAAAGTGATAAACCGG…AGGTTGGTTTCACT; site = the 11-nt donor. Summed up: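 In a pooled Escherichia coli screen for the IS621 bridge recombinase, donor and donor-binding-loop pairs were each placed with a 12-nt UMI on a plasmid bearing a promoterless kanamycin gene. This library was co-electroporated with a target plasmid encoding a fixed target and T7-inducible recombinase, and cells were plated either on IPTG (0.07 mM) plus kanamycin or without selection, in two replicates each. Recombinant UMIs were PCR-amplified across the donor–target junction and sequenced, and counts were converted to CPM, averaged over replicates, scaled by control-derived factors and reported as log10(CPM+1).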
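Note: IS621 bridge recombinase in Escherichia coli cells against a fixed T5 target plasmid.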

For “GCCACGGCATGGACCGGTTTTCCCGGTAATCCGTATTTGTA (site GCCACGCCTTA)”, the “recombinant UMI read abundance (log10)” value is 0.106.
Regarding “GCCACGGCATGGACCGGTTTTCCCGGTAATCCGTATTTGTA (site GCCACGGCTTA)”, the “recombinant UMI read abundance (log10)” value came out at 1.62.
For “GCCACGGCATGGACCGGTTTTCCCGGTAATCCGTATTTGTA (site GCCACGTCTTA)” the value was 0.163; for “GCCAGCGCATGGACCGGTTTTCCCGGTAATCCGTATTTGCC (site GCCAGCGCTGG)”, 1.98.
In the case of “GCCCCGTCATGGACCGGTTTTCCCGGTAATCCGTATTTGAT (site GCCCCGTCTAT)”, the “recombinant UMI read abundance (log10)” value stood at 2.
For “GCCCCTTCATGGACCGGTTTTCCCGGTAATCCGTATTTGGG (site GCCCCTTCTCC)” the value was 0.712; for “GCCGACACATGGACCGGTTTTCCCGGTAATCCGTATTTGTA (site GCCGACACTTA)”, 1.4.
For “GCCGATTCATGGACCGGTTTTCCCGGTAATCCGTATTTGCT (site GCCGATTCTAG)” the value was 1.88; for “GCCGCCCCATGGACCGGTTTTCCCGGTAATCCGTATTTGGC (site GCCGCCCCTGC)”, 0; for “GCCGCTTCATGGACCGGTTTTCCCGGTAATCCGTATTTGGA (site GCCGCTTCTTC)”, 1.23.
For the sequence “GCCGGGCCATGGACCGGTTTTCCCGGTAATCCGTATTTGCA (site GCCGGGCCTTG)”, the “recombinant UMI read abundance (log10)” value was determined as 0.
With “GCCGTACCATGGACCGGTTTTCCCGGTAATCCGTATTTGTT (site GCCGTACCTAA)”, the “recombinant UMI read abundance (log10)” value was 0.0103.
For “GCCTAGCCATGGACCGGTTTTCCCGGTAATCCGTATTTGTG (site GCCTAGCCTCA)” the value was 0.155; for “GCCTATACATGGACCGGTTTTCCCGGTAATCCGTATTTGAC (site GCCTATACTGT)”, 2.21.
Take “GCCTGCCCATGGACCGGTTTTCCCGGTAATCCGTATTTGAT (site GCATGCCCTAT)”: the “recombinant UMI read abundance (log10)” value is 0.0137.
As for “GCCTGCCCATGGACCGGTTTTCCCGGTAATCCGTATTTGAT (site GCCTGCCCTAT)”, the “recombinant UMI read abundance (log10)” value came out at 0.201.
In the case of “GCCTGCCCATGGACCGGTTTTCCCGGTAATCCGTATTTGAT (site GCGTGCCCTAT)”, the “recombinant UMI read abundance (log10)” value came to 0.0203.
Consider “GCCTGCCCATGGACCGGTTTTCCCGGTAATCCGTATTTGAT (site GCTTGCCCTAT)”, for which the “recombinant UMI read abundance (log10)” value was determined as 0.00989.
“GCGAAAACATGGACCGGTTTTCCCGGTAATCCGTATTTGAT (site GCGAAAACTAA)”: the “recombinant UMI read abundance (log10)” value came to 0.
“GCGAAAACATGGACCGGTTTTCCCGGTAATCCGTATTTGAT (site GCGAAAACTAC)”: the “recombinant UMI read abundance (log10)” value came out at 0.0215.
Consider “GCGAAAACATGGACCGGTTTTCCCGGTAATCCGTATTTGAT (site GCGAAAACTAG)”, for which the “recombinant UMI read abundance (log10)” value was determined as 0.
On to “GCGAAAACATGGACCGGTTTTCCCGGTAATCCGTATTTGAT (site GCGAAAACTAT)”, for which the “recombinant UMI read abundance (log10)” value came out at 1.66.
“GCGAAAACATGGACCGGTTTTCCCGGTAATCCGTATTTGTT (site GCGAAAACTAA)”: the “recombinant UMI read abundance (log10)” value came out at 2.31.
Regarding “GCGAAAACATGGACCGGTTTTCCCGGTAATCCGTATTTGTT (site GCGAAAACTAC)”, the “recombinant UMI read abundance (log10)” value worked out at 0.
For “GCGAAAACATGGACCGGTTTTCCCGGTAATCCGTATTTGTT (site GCGAAAACTAG)”, the “recombinant UMI read abundance (log10)” value amounted to 1.18.
For the sequence “GCGAAAACATGGACCGGTTTTCCCGGTAATCCGTATTTGTT (site GCGAAAACTAT)”, the “recombinant UMI read abundance (log10)” value turned out to be 0.
For “GCGAAACCATGGACCGGTTTTCCCGGTAATCCGTATTTGCT (site GCGAAAACTAG)” the value was 0.
“GCGAAACCATGGACCGGTTTTCCCGGTAATCCGTATTTGCT (site GCGAAACCTAG)”: the “recombinant UMI read abundance (log10)” value came out at 0.
Take “GCGAAACCATGGACCGGTTTTCCCGGTAATCCGTATTTGCT (site GCGAAAGCTAG)”: the “recombinant UMI read abundance (log10)” value was determined as 0.
With “GCGAAACCATGGACCGGTTTTCCCGGTAATCCGTATTTGCT (site GCGAAATCTAG)”, the “recombinant UMI read abundance (log10)” value amounted to 0.
As for “GCGAAGCCATGGACCGGTTTTCCCGGTAATCCGTATTTGGT (site GCGAAGCCTAC)”, the “recombinant UMI read abundance (log10)” value was 0.885.
For “GCGAAGCCATGGACCGGTTTTCCCGGTAATCCGTATTTGGT (site GCGAAGCCTCC)”, the “recombinant UMI read abundance (log10)” value worked out at 0.00425.
For “GCGAAGCCATGGACCGGTTTTCCCGGTAATCCGTATTTGGT (site GCGAAGCCTGC)” the value was 0.
For “GCGAAGCCATGGACCGGTTTTCCCGGTAATCCGTATTTGGT (site GCGAAGCCTTC)” the value was 0.234; for “GCGAAGTCATGGACCGGTTTTCCCGGTAATCCGTATTTGGG (site GCGAAGACTCC)”, 0.283; for “GCGAAGTCATGGACCGGTTTTCCCGGTAATCCGTATTTGGG (site GCGAAGCCTCC)”, 0.0096.
Regarding “GCGAAGTCATGGACCGGTTTTCCCGGTAATCCGTATTTGGG (site GCGAAGGCTCC)”, the “recombinant UMI read abundance (log10)” value turned out to be 0.019.
Turning to “GCGAAGTCATGGACCGGTTTTCCCGGTAATCCGTATTTGGG (site GCGAAGTCTCC)”, the “recombinant UMI read abundance (log10)” value turned out to be 1.21.
Turning to “GCGACTACATGGACCGGTTTTCCCGGTAATCCGTATTTGGC (site GCGACTACTGC)”, the “recombinant UMI read abundance (log10)” value was 1.97.
With “GCGACTGCATGGACCGGTTTTCCCGGTAATCCGTATTTGCC (site GCAACTGCTGG)”, the “recombinant UMI read abundance (log10)” value turned out to be 2.
As for “GCGACTGCATGGACCGGTTTTCCCGGTAATCCGTATTTGCC (site GCCACTGCTGG)”, the “recombinant UMI read abundance (log10)” value amounted to 0.516.
Regarding “GCGACTGCATGGACCGGTTTTCCCGGTAATCCGTATTTGCC (site GCGACTGCTGG)”, the “recombinant UMI read abundance (log10)” value was 1.65.
For “GCGACTGCATGGACCGGTTTTCCCGGTAATCCGTATTTGCC (site GCTACTGCTGG)” the value was 0.
Take “GCGATGCCATGGACCGGTTTTCCCGGTAATCCGTATTTGGG (site GCGAAGCCTCC)”: the “recombinant UMI read abundance (log10)” value is 0.00846.
As to “GCGATGCCATGGACCGGTTTTCCCGGTAATCCGTATTTGGG (site GCGACGCCTCC)”, the “recombinant UMI read abundance (log10)” value came out at 0.0196.
As to “GCGATGCCATGGACCGGTTTTCCCGGTAATCCGTATTTGGG (site GCGAGGCCTCC)”, the “recombinant UMI read abundance (log10)” value was 0.0186.
For “GCGATGCCATGGACCGGTTTTCCCGGTAATCCGTATTTGGG (site GCGATGCCTCC)” the value was 0.0291; for “GCGCAAACATGGACCGGTTTTCCCGGTAATCCGTATTTGCT (site GCGAAAACTAG)”, 0; for “GCGCAAACATGGACCGGTTTTCCCGGTAATCCGTATTTGCT (site GCGCAAACTAG)”, 1.59.
In the case of “GCGCAAACATGGACCGGTTTTCCCGGTAATCCGTATTTGCT (site GCGGAAACTAG)”, the “recombinant UMI read abundance (log10)” value amounted to 0.
Turning to “GCGCAAACATGGACCGGTTTTCCCGGTAATCCGTATTTGCT (site GCGTAAACTAG)”, the “recombinant UMI read abundance (log10)” value came out at 0.
For “GCGCCCACATGGACCGGTTTTCCCGGTAATCCGTATTTGTG (site GCGCCCACTCA)” the value was 0.0198; for “GCGCCTACATGGACCGGTTTTCCCGGTAATCCGTATTTGTT (site GCGCCTACTAA)”, 0.013; for “GCGCGAGCATGGACCGGTTTTCCCGGTAATCCGTATTTGGG (site GCGCGAGCTCC)”, 0.163.
Regarding “GCGCTCACATGGACCGGTTTTCCCGGTAATCCGTATTTGAT (site GAGCTCACTAT)”, the “recombinant UMI read abundance (log10)” value is 0.12.
As to “GCGCTCACATGGACCGGTTTTCCCGGTAATCCGTATTTGAT (site GCGCTCACTAT)”, the “recombinant UMI read abundance (log10)” value turned out to be 2.21.
As for “GCGCTCACATGGACCGGTTTTCCCGGTAATCCGTATTTGAT (site GGGCTCACTAT)”, the “recombinant UMI read abundance (log10)” value amounted to 0.00525.
Regarding “GCGCTCACATGGACCGGTTTTCCCGGTAATCCGTATTTGAT (site GTGCTCACTAT)”, the “recombinant UMI read abundance (log10)” value worked out at 0.28.
For “GCGGAAGCATGGACCGGTTTTCCCGGTAATCCGTATTTGGT (site GCGGAAGCTAC)”, the “recombinant UMI read abundance (log10)” value came to 1.72.
In the case of “GCGGATGCATGGACCGGTTTTCCCGGTAATCCGTATTTGAA (site GCGGATGCTTT)”, the “recombinant UMI read abundance (log10)” value was 2.38.
As to “GCGGCACCATGGACCGGTTTTCCCGGTAATCCGTATTTGCA (site GAGGCACCTTG)”, the “recombinant UMI read abundance (log10)” value is 0.00511.
For “GCGGCACCATGGACCGGTTTTCCCGGTAATCCGTATTTGCA (site GCGGCACCTTG)” the value was 0; for “GCGGCACCATGGACCGGTTTTCCCGGTAATCCGTATTTGCA (site GGGGCACCTTG)”, 0.008.
As for “GCGGCACCATGGACCGGTTTTCCCGGTAATCCGTATTTGCA (site GTGGCACCTTG)”, the “recombinant UMI read abundance (log10)” value turned out to be 0.
Regarding “GCGGCTACATGGACCGGTTTTCCCGGTAATCCGTATTTGTC (site GCGGCTACTGA)”, the “recombinant UMI read abundance (log10)” value came out at 2.67.
Take “GCGGCTTCATGGACCGGTTTTCCCGGTAATCCGTATTTGTC (site GCGGCTTCTGA)”: the “recombinant UMI read abundance (log10)” value came to 1.81.
For “GCGGGCACATGGACCGGTTTTCCCGGTAATCCGTATTTGTG (site GCGGGCACTCA)” the value was 0.836; for “GCGGTGCCATGGACCGGTTTTCCCGGTAATCCGTATTTGGC (site GCGGTGCCTGC)”, 0.
